One experiment deals with Aedes aegypti. Description: Larvicidal activity against Aedes aegypti larvae. It is filed as functional.
A further experiment has as its system P388. Description: Cytotoxicity against mouse P388 cells. It is filed as functional. To be noted: P388, read-out: ED50.

Here are results for three molecules from ChEMBL document CHEMBL1144092, “5-Oxonoraporphines from Mitrephora cf. maingayi” (1999).

Structures are written as SMILES. In brackets after ≈: the same amount, converted by molar mass. Activity calls are given as the source filed them. No cut-off for these calls is given here.

As to `COc1c2c3c(c(OC)c1OC)-c1ccccc1C[C@H]3NC(=O)C2`, the outcome with Aedes aegypti was inactive. Further, in the experiment on P388, the EC50 was over 30 µg/mL. On to `COc1c(OC)c(OC)c2c3c(cc4ccccc42)NC(=O)C(=O)c13` [OUREGIDIONE], for which the LC50 in the experiment with Aedes aegypti is 10000 µg/mL (≈ 29.6 mM). Regarding `COc1c(O)c2c3c(c1OC)-c1ccccc1C[C@H]3NC(=O)C2`, the outcome in the experiment on Aedes aegypti was inactive. The EC50 in the experiment with P388 was over 30 µg/mL.
